Key:
Assay in all cases: Bliss excess, mean over the matrix (fraction); higher = more synergy
[1] = test system: KARPAS-620 (Plasma Cell Myeloma)
Method in brief: (§1)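 Cell lines in DMEM/F12 or RPMI with 10% FBS were plated in 1536-well plates, held 24 hours at 37°C, 5% CO2, then given two-drug dose matrices for 72 hours (DMSO typically 0.2%). Viability was read by CellTiter-Glo 2.0 luminescence and scaled as inhibition from 0 (vehicle wells) to 1 (blank wells). Combination Emax is the second-highest inhibition in the matrix; Bliss excess is observed combination effect minus expected EA + EB − EA·EB, EA and EB being single-agent effects.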

[2] = test system: HPAC (Pancreatic Carcinoma)
Method in brief: as §1

[3] = test system: OCI-AML2 (Acute Myeloid Leukemia)
Method in brief: as §1

[4] = test system: NCI-H1299 (Non-Small Cell Lung Carcinoma)
Method in brief: as §1

[5] = test system: U-266 (Plasma Cell Myeloma)
Method in brief: as §1

[6] = test system: LU-99A (Non-Small Cell Lung Carcinoma)
Method in brief: as §1

[7] = test system: C3A (Hepatocellular Carcinoma)
Method in brief: as §1

[8] = test system: COR-L95 (Small Cell Lung Carcinoma)
Method in brief: as §1

[9] = test system: NALM-6 (B-Lymphoblastic Leukemia)
Method in brief: as §1

[10] = test system: EM-2 (Chronic Myelogenous Leukemia)
Method in brief: as §1

[11] = test system: SW756 (Cervical Carcinoma)
Method in brief: as §1

[12] = test system: IHH-4 (Thyroid Gland Carcinoma)
Method in brief: as §1

[13] = test system: SNU-C5 (Colorectal Carcinoma)
Method in brief: as §1

[14] = test system: SW1783 (Low Grade Glioma)
Method in brief: as §1

[15] = test system: CFPAC-1 (Pancreatic Carcinoma)
Method in brief: as §1

[16] = test system: DB (B-Cell Non-Hodgkin's Lymphoma)
Method in brief: as §1

[17] = test system: 697 (B-Lymphoblastic Leukemia)
Method in brief: as §1

[18] = test system: HT-29 (Colorectal Carcinoma)
Method in brief: as §1

[19] = test system: SN12C (Kidney Carcinoma)
Method in brief: as §1

[20] = test system: J82 (Bladder Carcinoma)
Method in brief: as §1

SMILES | Bliss excess [1] | Bliss excess [2] | Bliss excess [3] | Bliss excess [4] | Bliss excess [5] | Bliss excess [6] | Bliss excess [7] | Bliss excess [8] | Bliss excess [9] | Bliss excess [10] | Bliss excess [11] | Bliss excess [12] | Bliss excess [13] | Bliss excess [14] | Bliss excess [15] | Bliss excess [16] | Bliss excess [17] | Bliss excess [18] | Bliss excess [19] | Bliss excess [20]
CN(CCO)CC[C@H](CSc1ccccc1)Nc1ccc(S(=O)(=O)NC(=O)c2ccc(N3CCC([C@@H](O)c4ccccc4-c4ccc(Cl)cc4)CC3)cc2)cc1S(=O)(=O)C(F)(F)F [AZD4320] + Cc1cc2ncnn2cc1Nc1ncc2c(n1)n(C1CCOCC1)c(=O)n2C [AZD7648] (first compound max 1 µM, 7x7, partner max 10 µM) | 0.0178 | -0.0292 | 0.0136 | -0.0408 | -0.0005 | -0.0522 | -0.0546 | 0.0276 | -0.0061 | 0.0184 | -0.051 | -0.0451 | -0.0257 | -0.044 | -0.0345 | -0.0149 | -0.0305 | -0.0293 | -0.0578 | -0.0435
COc1cccc2c1C(=O)c1c(O)c3c(c(O)c1C2=O)C[C@@](O)(C(=O)CO)C[C@@H]3O[C@H]1C[C@H](N)[C@H](O)[C@H](C)O1 [Doxorubicin] + Cc1cc2ncnn2cc1Nc1ncc2c(n1)n(C1CCOCC1)c(=O)n2C [AZD7648] (first compound max 1 µM, 7x7, partner max 10 µM) | -0.0381 | 0.0275 | 0.0125 | 0.0329 | 0.115 | 0.0269 | -0.0065 | 0.0084 | 0.139 | 0.0536 | 0.0541 | 0.109 | 0.0378 | 0.0262 | 0.0253 | 0.0888 | 0.101 | 0.0099 | 0.0191 | 0.0106
CN(CCO)CC[C@H](CSc1ccccc1)Nc1ccc(S(=O)(=O)NC(=O)c2ccc(N3CCC([C@@H](O)c4ccccc4-c4ccc(Cl)cc4)CC3)cc2)cc1S(=O)(=O)C(F)(F)F [AZD4320] + C=CCn1c(=O)c2cnc(Nc3ccc(N4CCN(C)CC4)cc3)nc2n1-c1cccc(C(C)(C)O)n1 [AZD1775] (first compound max 1 µM, partner max 1 µM) | -0.0125 | -0.0048 | 0.0312 | -0.0107 | 0.1 | 0.0007 | -0.0619 | 0.0519 | 0.0725 | -0.0381 | -0.0225 | 0.0051 | -0.0062 | 0.0433 | -0.0373 | 0.0616 | 0.0545 | 0.0055 | -0.0099 | -0.107
COc1nnc2ccc(N3CCC(c4ccc(OCCN5CCN(C)C(=O)[C@H]5C)cc4)CC3)nn12 [AZD5153] + Cc1c2c(nn1C)CSCc1cc(n(C)n1)CSc1cc(c3ccccc3c1)OCCCc1c(C(=O)O)n(C)c3c-2c(Cl)ccc13 [AZD5991] (first compound max 1 µM, 7x7, partner max 1 µM) | -0.0115 | -0.0105 | -0.0185 | -0.0313 | -0.106 | 0.0087 | -0.0262 | -0.0167 | -0.0732 | 0.0004 | -0.0238 | -0.0329 | -0.0417 | -0.0024 | -0.0208 | 0.0507 | -0.0558 | -0.0227 | -0.0285 | 0.0439
COc1cc2c(cc1OCCCCCOc1cc3c(cc1OC)C(=O)N1C=C(C)C[C@H]1C=N3)N=C[C@@H]1CC(C)=CN1C2=O [SG3199] + O=C(c1cc(Cc2n[nH]c(=O)c3ccccc23)ccc1F)N1CCN(C(=O)C2CC2)CC1 [Olaparib] (first compound max 0.001 µM, 7x7, partner max 10 µM) | -0.0015 | -0.0232 | -0.0546 | -0.0381 | -0.0601 | -0.0672 | -0.0528 | -0.0224 | -0.0302 | 0.0107 | 0.0091 | -0.0115 | -0.0362 | -0.0446 | -0.0329 | -0.0272 | 0.0376 | -0.0261 | -0.0697 | 0.0123
COc1cccc(OCCCN)c1-c1cc(Nc2cnc(C#N)cn2)n[nH]1 [Prexasertib] + C=CCn1c(=O)c2cnc(Nc3ccc(N4CCN(C)CC4)cc3)nc2n1-c1cccc(C(C)(C)O)n1 [AZD1775] (first compound max 1 µM, partner max 1 µM) | 0.0927 | 0.0323 | 0.0655 | -0.0148 | -0.0454 | 0.0196 | 0.0463 | -0.0187 | 0.0507 | 0.0475 | 0.0163 | 0.136 | 0.0153 | -0.0053 | -0.0145 | 0.071 | 0.0316 | -0.0247 | 0.0613 | 0.096
NC1(C(=O)N[C@@H](CCO)c2ccc(Cl)cc2)CCN(c2ncnc3[nH]ccc23)CC1 [Capivasertib] + COc1nnc2ccc(N3CCC(c4ccc(OCCN5CCN(C)C(=O)[C@H]5C)cc4)CC3)nn12 [AZD5153] (first compound max 10 µM, 7x7, partner max 1 µM) | -0.0154 | 0.0657 | 0.0068 | 0.0174 | 0.0076 | 0 | 0.0515 | -0.0272 | -0.0517 | 0.0043 | 0.0197 | 0.0199 | 0.0669 | 0.0324 | 0.0332 | -0.0003 | -0.065 | -0.0029 | -0.0155 | 0.0421
C=CCn1c(=O)c2cnc(Nc3ccc(N4CCN(C)CC4)cc3)nc2n1-c1cccc(C(C)(C)O)n1 [AZD1775] + C[C@@H]1COCCN1C2=NC(=NC(=C2)C3(CC3)[S@](=N)(=O)C)C4=C5C=CNC5=NC=C4 [AZD6738] (first compound max 1 µM, partner max 10 µM) | 0.0335 | 0.0473 | 0.0349 | -0.0268 | 0.0235 | -0.0377 | -0.0104 | -0.101 | 0.0491 | 0.0362 | -0.0278 | 0.0534 | -0.0173 | -0.0432 | -0.0369 | -0.0023 | 0.047 | -0.0089 | -0.0359 | 0.0305
CC1(C)CCC(CN2CCN(c3ccc(C(=O)NS(=O)(=O)c4ccc(NCC5CCOCC5)c([N+](=O)[O-])c4)c(Oc4cnc5[nH]ccc5c4)c3)CC2)=C(c2ccc(Cl)cc2)C1 [Venetoclax] + C[C@@H]1COCCN1C2=NC(=NC(=C2)C3(CC3)[S@](=N)(=O)C)C4=C5C=CNC5=NC=C4 [AZD6738] (first compound max 1 µM, 7x7, partner max 10 µM) | 0.0235 | -0.0736 | 0.0166 | -0.0203 | -0.0402 | -0.0278 | -0.0503 | -0.0056 | 0.0565 | -0.0272 | -0.0249 | -0.0482 | -0.0289 | -0.0555 | 0.015 | 0.009 | 0.0052 | -0.0215 | -0.047 | 0.0106
CC1(C)CCC(CN2CCN(c3ccc(C(=O)NS(=O)(=O)c4ccc(NCC5CCOCC5)c([N+](=O)[O-])c4)c(Oc4cnc5[nH]ccc5c4)c3)CC2)=C(c2ccc(Cl)cc2)C1 [Venetoclax] + Cc1cc2ncnn2cc1Nc1ncc2c(n1)n(C1CCOCC1)c(=O)n2C [AZD7648] (first compound max 1 µM, 7x7, partner max 10 µM) | 0.0454 | 0.0142 | 0.0273 | -0.0352 | 0.0148 | -0.0437 | -0.0588 | -0.039 | -0.0184 | -0.0135 | 0.0031 | -0.027 | -0.0233 | -0.0395 | -0.0359 | 0.0225 | -0.0154 | 0.0077 | -0.0471 | -0.0202
CC1(C)CCC(CN2CCN(c3ccc(C(=O)NS(=O)(=O)c4ccc(NCC5CCOCC5)c([N+](=O)[O-])c4)c(Oc4cnc5[nH]ccc5c4)c3)CC2)=C(c2ccc(Cl)cc2)C1 [Venetoclax] + CCN(CCO)CCCOc1ccc2c(Nc3cc(CC(=O)Nc4cccc(F)c4)[nH]n3)ncnc2c1 [AZD2811] (first compound max 1 µM, 7x7, partner max 1 µM) | 0.169 | -0.0275 | 0.0892 | -0.0358 | -0.0216 | -0.0012 | -0.0359 | 0.0474 | 0.0968 | -0.0721 | -0.0292 | -0.0288 | 0.0063 | -0.0192 | -0.024 | 0.0416 | 0.0078 | 0.0012 | -0.0267 | -0.014
Cc1cc2ncnn2cc1Nc1ncc2c(n1)n(C1CCOCC1)c(=O)n2C [AZD7648] + CCN(CCO)CCCOc1ccc2c(Nc3cc(CC(=O)Nc4cccc(F)c4)[nH]n3)ncnc2c1 [AZD2811] (first compound max 10 µM, 7x7, partner max 1 µM) | 0.0088 | -0.032 | -0.0004 | 0.0093 | 0.0204 | 0.0216 | 0.0219 | -0.003 | -0.0358 | -0.073 | -0.0209 | 0.0429 | 0.0093 | 0.0063 | 0.0181 | 0.0438 | 0.018 | 0.0227 | -0.01 | -0.0488
COc1nnc2ccc(N3CCC(c4ccc(OCCN5CCN(C)C(=O)[C@H]5C)cc4)CC3)nn12 [AZD5153] + CCN(CCO)CCCOc1ccc2c(Nc3cc(CC(=O)Nc4cccc(F)c4)[nH]n3)ncnc2c1 [AZD2811] (first compound max 1 µM, 7x7, partner max 1 µM) | -0.0158 | -0.0283 | 0.0016 | -0.0578 | -0.0763 | -0.0244 | -0.0567 | -0.0159 | -0.0683 | -0.001 | -0.0067 | 0.0167 | -0.0541 | -0.038 | -0.088 | -0.0585 | -0.0118 | -0.0281 | 0.0129 | -0.0148
Cc1c2c(nn1C)CSCc1cc(n(C)n1)CSc1cc(c3ccccc3c1)OCCCc1c(C(=O)O)n(C)c3c-2c(Cl)ccc13 [AZD5991] + C1CN(CCC1(C(=O)N[C@@H](CCO)C2=CC=C(C=C2)Cl)N)C3=NC=NC4=C3C=CN4 [Capivasertib] (first compound max 1 µM, 7x7, partner max 3 µM) | -0.0097 | -0.0239 | 0.0385 | -0.0174 | 0.0662 | -0.0247 | -0.0318 | 0.0071 | 0.0149 | -0.0149 | -0.023 | 0.0037 | 0.0007 | -0.0145 | 0.0021 | 0.0079 | -0.034 | -0.0114 | -0.0239 | -0.0046

From the supplement of paper PMC11061612
